Source: US10160812B2, “Bispecific HER2 antibodies” (MedImmune, LLC, priority 2014, dated 2018)

Tests used:
[1] = system: SKOV-3; assay: In vitro cytotoxic activity (Cell Titer Glo); type: cell-based, human; conditions: SKOV-3, 3 to 4 days; read-out: In vitro potency (EC50 in pM)
Description: (§4) A panel of human cancer cell lines expressing various levels of HER2 was used to evaluate the cytotoxic activity of bispecific ADC (Table 5 in Example 1). Briefly, cells were harvested, resuspended, and plated in serum-containing culture media at a density of 5,000 to 20,000 per well (depending on the growth kinetics of each cell line) of 96-well plates in a volume of 100 μL. A 2× concentration of each dose of antibody or ADC to be tested was prepared by diluting the test articles in culture medium. One hundred microliters of each test article was added to cells in triplicate such that the final dose curve ranged from 5 nM down to 0.08 pM in a stepwise 1:4 serial dilution series. The treated cells were incubated at 37° C./5% CO2 for 3 to 4 days, depending on the growth kinetics of each particular cell line. Cell viability was determined using Cell Titer Glo according to manufacturer's instructions. Data are analyzed by the GraphPad Prism software and presented as percent growth inhibition relative to the untreated control. EC50 values were determined using Sigmoidal non-linear regression analysis with GraphPad Prism software and were summarized in Table 6.

[2] = system: MDA-MB-361 cells; type: cell-based, human; conditions: MDA-MB-361, 10 pM, relative to untreated control
Description: MDA-MB-361 cells were cultured under standard tissue culture conditions in Leibovitz's L-15 medium supplemented with 20% FBS. Cells were harvested by trypsinization, washed twice with PBS, and resuspended to 30,000 cells per mL in stem cell medium (SCM: DMEM/F12 supplemented with 20 ng/mL EGF, 10 ng/mL bFGF, 5 mg/mL insulin, 0.4% BSA and 1% knock-out serum replacement). […] At the end of treatment, the primary spheres were harvested, dissociated using 0.05% trypsin and resuspended at a density of 30,000 cells/mL in SCM containing the same antibody treatment as the primary sphere culture. Cells were then plated in triplicate into 96-well ultra-low attachment plates and incubated for 4 days. Sphere cell viability was determined using Cell Titer Glo according to manufacturer's instructions. Data are presented as fold of CSC sphere formation relative to the untreated control.

[3] = system: RT-112; assay: In vitro cytotoxic activity (Cell Titer Glo); type: cell-based, human; conditions: RT-112, 3 to 4 days
Description: (§5) Briefly, cells were harvested, resuspended, and plated in serum-containing culture media at a density of 5,000 to 20,000 per well (depending on the growth kinetics of each cell line) of 96-well plates in a volume of 100 μL. A 2× concentration of each dose of antibody or ADC to be tested was prepared by diluting the test articles in culture medium. One hundred microliters of each test article was added to cells in triplicate such that the final dose curve ranged from 5 nM down to 0.08 pM in a stepwise 1:4 serial dilution series. The treated cells were incubated at 37° C./5% CO2 for 3 to 4 days, depending on the growth kinetics of each particular cell line. Cell viability was determined using Cell Titer Glo according to manufacturer's instructions. Data are analyzed by the GraphPad Prism software and presented as percent growth inhibition relative to the untreated control.

[4] = system: JIMT-1; assay: In vitro cytotoxic activity (Cell Titer Glo); type: cell-based, human; conditions: JIMT-1, 3 to 4 days
Description: as §4

[5] = system: MCF7-GTU; assay: In vitro cytotoxic activity (Cell Titer Glo); type: cell-based, human; conditions: 3 to 4 days
Description: as §5

[6] = system: SKBR-3; assay: In vitro cytotoxic activity (Cell Titer Glo); type: cell-based, human; conditions: SKBR-3, 3 to 4 days; read-out: In vitro potency (EC50 in pM)
Description: as §4

[7] = system: JIMT-1 model; assay: CBX orthotopic tumor model (T-DM1 non-responder); type: in vivo, Athymic nude mice; conditions: JIMT-1 orthotopic CBX; Bs2-4T at 3 mg/kg
Description: All mouse experiments were carried out in compliance with the guidelines published by the Association for Assessment and Accreditation of Laboratory Animal Care (AAALAC) and protocols approved by the MedImmune Institutional Animal Care and Use Committee. Athymic nude mice between 4-8 weeks of age were used in the studies. In subcutaneous CBX models, animals were injected unilaterally on the right flank with tumor cells harvested from culture at a specific passage lot. […] In PDX models, animals are implanted unilaterally on the flank with tumor fragments harvested from host animals each implanted from a specific passage lot. Pre-study tumor volumes were recorded for each experiment beginning approximately one week prior to its estimated start date. […] Animals were dosed once weekly unless otherwise specified with test articles via intravenous or intraperitoneal injection. Animals were observed daily and tumor dimensions and body weights were measured and recorded twice weekly.

[8] = system: T-DM1 resistant NCI-N87 tumor model; assay: In vivo tumor model with acquired T-DM1 resistance; set-up: species or system mice; conditions: weekly intravenous dosing, 3 mg/kg (pertuzumab 10 mg/kg), total of 4 doses
Description: To establish an in vivo tumor model with acquired T-DM1 resistance, the T-DM1-resistant NCI-N87 cells were injected subcutaneously into the immune-deficient mice. The tumor-bearing mice were treated with 3 mg/kg of T-DM1. It appeared that the in vitro T-DM1 resistance was not fully translated into the in vivo resistance, reflected by considerable variations in tumor growth among animals. Thus, mice with large refractory tumors (˜1000 mm^3 in volume) were selected and the tumor tissue fragments were passaged to new mice until the tumors grew consistently in the presence of weekly treatment of 3 mg/kg T-DM1.

[9] = system: NCI-N87 cell; assay: Proliferation inhibition assay in serum-containing media; type: cell-based, human
Description: Cell viability was determined using Cell Titer Glo from Promega according to manufacturer's instructions.

[10] = system: cynomolgus monkey Her2; assay: Capture ELISA binding specificity / species cross-reactivity; conditions: recombinant extracellular domain protein
Description: (§1) To determine whether 39S retains the binding specificity and species cross-reactivity of its parental antibody AZ1.39.1, binding of 39S to the receptors of human ErbB family (EGFR, HER2, HER3, and HER4), the mouse Her2, and the cynomolgus monkey Her2 was examined by capture ELISA. Briefly, 96-well plates were coated with one of the following recombinant extracellular domain proteins: human EGFR, human HER2, human HER3, human HER4, mouse Her2, or cynomolgus monkey Her2. Antibody to be tested was prepared by diluting in a stepwise 1:3 serial dilution ranging from 50 nM down to 0.28 pM and then added to the wells in duplicate. After one hour of incubation, plates were washed, and goat anti-human IgG Fab HRP-conjugated secondary antibody was added to each well and the plates were incubated for 1 hour. The plates were washed and TMB substrate was added and incubated for 5-20 min to allow color development. The stop solution was added to the wells at the end of reaction and the plates were read at 450 nm. Binding signal (absorbance at 450 nm) was plotted against antibody concentration using Prism software.
(§2) Binding specificity and species cross-reactivity of bispecific antibodies to the recombinant extracellular domain protein of human EGFR, human HER2, human HER3, human HER4, mouse Her2, or cynomolgus monkey Her2 were determined by capture ELISA as described in Example 1.
(§3) To determine whether the conjugation of tubulysin 1508 alters antigen binding specificity and species cross-reactivity, binding activity of bispecific ADC to the recombinant extracellular domain protein of human EGFR, human HER2, human HER3, human HER4, mouse Her2, and cynomolgus monkey Her2 were confirmed by capture ELISA as described in Example 1.

[11] = target: T1, human EGFR (Homo sapiens, UniProt P00533); assay: as above; conditions: recombinant extracellular domain protein
T1 construct: recombinant extracellular domain proteins: human EGFR, human HER2, human HER3, human HER4, mouse Her2, or cynomolgus monkey Her2
Description: as §1, §2, §3

[12] = target: T2, human HER4 (Homo sapiens, UniProt Q15303); assay: as above; conditions: recombinant extracellular domain protein
T2 construct: recombinant extracellular domain proteins: human EGFR, human HER2, human HER3, human HER4, mouse Her2, or cynomolgus monkey Her2
T2 sequence (Q15303 26-651 limits assumed): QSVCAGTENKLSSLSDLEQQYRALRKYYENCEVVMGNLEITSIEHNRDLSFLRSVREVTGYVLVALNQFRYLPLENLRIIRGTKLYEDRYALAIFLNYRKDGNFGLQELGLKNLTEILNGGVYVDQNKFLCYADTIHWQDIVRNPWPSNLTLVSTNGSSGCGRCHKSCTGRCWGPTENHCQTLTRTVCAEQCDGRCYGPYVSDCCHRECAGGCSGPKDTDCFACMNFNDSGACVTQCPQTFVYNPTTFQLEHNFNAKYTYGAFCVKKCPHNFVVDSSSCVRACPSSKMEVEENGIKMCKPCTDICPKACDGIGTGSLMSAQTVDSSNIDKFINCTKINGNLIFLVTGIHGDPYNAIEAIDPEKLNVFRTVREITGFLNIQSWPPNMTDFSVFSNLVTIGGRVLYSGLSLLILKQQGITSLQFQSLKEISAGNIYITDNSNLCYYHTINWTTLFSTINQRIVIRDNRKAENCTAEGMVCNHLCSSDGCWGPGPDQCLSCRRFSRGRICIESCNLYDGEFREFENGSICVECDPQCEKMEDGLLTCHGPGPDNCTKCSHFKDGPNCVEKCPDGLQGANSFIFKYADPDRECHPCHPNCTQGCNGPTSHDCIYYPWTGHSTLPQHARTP
Description: as §1, §2, §3

[13] = target: T3, human HER3 (Homo sapiens, UniProt P21860); assay: as above; conditions: recombinant extracellular domain protein
T3 construct: recombinant extracellular domain proteins: human EGFR, human HER2, human HER3, human HER4, mouse Her2, or cynomolgus monkey Her2
Description: as §1, §2, §3

| Molecule | EC50 [1] [pM] | inhibition of CSC sphere formation [2] | In vitro potency (EC50 in pM) [3] | In vitro potency (EC50 in pM) [4] | In vitro potency (EC50 in pM) [5] | EC50 [6] [pM] | in vivo activity (tumor growth) [7] | in vivo activity (tumor growth) [8] | inhibition of cell proliferation [9] | inhibition of cell growth in combination ([9]; combined with trastuzumab or pertuzumab) | binding by capture ELISA [10] | binding by capture ELISA [11] | binding by capture ELISA [12] | binding by capture ELISA [13] |
| --- | --- | --- | --- | --- | --- | --- | --- | --- | --- | --- | --- | --- | --- | --- |
| T-DM1 [reference compound] | 116 | no activity | Inactive | Inactive | Inactive | 82.6 | no activity | resistant |  |  |  |  |  |  |
| 39S: lead optimized monoclonal antibody derived from the 1.39.1 antibody; VH SEQ ID NO:15, VL SEQ ID NO:16 (antibody, V domains shown) VH: EVQLVESGGGLVKPGGSLRLSCAASGFTFSSYSMSWVRQAPGKGLEWVSSISSSSSYIYYADSVKGRFTISRDNAKNSLYLQMNSLRAEDTAVYYCARGGDAYNYYYFDYWGQGTLVTVSS VL: DIVMTQTPLSLSVTPGQPASISCKSSQSVFFRSNNKNILAWYLQKPGQPPQLLIYWASSRESGVPDRFSGSGSGTDFTLKISRVEAEDVGVYYCQQYFGSPFTFGPGTKVDIK |  |  |  |  |  |  |  |  | limited activity | strong synergistic effect | can bind | not | not | not |
